# Data published in patent US9075281B2, “Colored composition and image display structure” (FUJIFILM CORPORATION, priority 2011, dated 2015).
# What was measured:
# Format in all cases: physicochemical
# [1] = Measurement of relative permittivity; settings: dye itself, extrapolated from 1, 1.5 and 2% by mass n-hexane solutions; 20° C., 40% RH, 1 kHz
# Procedure: 4. Measurement of Relative Permittivity
# Solutions of Exemplary Compound D8-4 in n-hexane having concentrations of 1% by mass, 1.5% by mass and 2% by mass, respectively, were prepared, and individually injected into glass cells each having transparent indium-tin-oxide electrodes and a cell gap of 10 μm. The electrical capacities of the resultant cells were measured at 20° C. and 40% RH using a type 2353 LCR meter (manufactured by NF Corporation) at a measurement frequency of 1 kHz. The electrical capacity of n-hexane was also measured as a control sample.
# The relative permittivities of the dyes (Exemplary Compounds) employed in the Examples were obtained in the same manner, and the results are shown in Table 7.
# [2] = Measurement of dynamic viscosity; settings: 3% by mass solution in n-decane, 20° C.
# Procedure: Here, the dynamic viscosity is a value obtained by measurement at 20° C., using a viscometer (type 500, manufactured by Toki Sangyo Co., Ltd.).
# 5. Measurement of Dynamic Viscosity
# A 3% by mass solution of Exemplary Compound D8-4 in n-decane was prepared, and the viscosity of the dye solution was measured at 20° C. using a viscometer (type 500, manufactured by Toki Sangyo Co., Ltd.).
# The dynamic viscosities of the dyes (Exemplary Compounds) employed in Examples were obtained in the same manner, and the results are shown in Table 8.
# [3] = Absorption maximum wavelength, absorbance and absorption coefficient of the colored composition; settings: n-hexane solution, 3% by mass or maximum concentration at which the dye completely dissolves; for Absorption Coefficient (ε): calculated by Lambert-Beer law
# Procedure: 2. Absorption Maximum Wavelength, Absorbance and Absorption Coefficient of the Colored Composition
# The absorption maximum wavelength (λmax) and the absorbance (abs) of the colored composition were measured using a visible-light spectrophotometer (trade name: UV-1800PC, manufactured by Shimadzu Corporation). The absorption coefficient (∈) was calculated based on the Lambert-Beer law.
# [4] = Color of colored composition, visually evaluated; settings: n-hexane solution, visual evaluation
# Text: 1. Color of Colored Composition
# The color of the colored composition was visually evaluated.
# [5] = Solubility of the dye in n-hexane; settings: in n-hexane at 25° C. and 0.1 MPa
# Procedure: 3. Solubility in n-Hexane
# The solubility of the dye in a solvent, n-hexane, was determined as follows.
# The dye to be measured was dissolved in n-hexane heated at 50° C., to prepare a saturated solution. The saturated solution obtained was then left in an environment of 25° C. and 0.1 MPa for 1 hour. The precipitated dye was filtered, and the precipitation amount was measured, from which the solubility (% by mass) of the dye in n-hexane at 25° C. and 0.1 MPa was calculated.
Relative Permittivity [1],Dynamic Viscosity (mPa · s) [2],Absorption Maximum Wavelength (λ max) [3],Absorption Coefficient (ε) [3],Color of Solution [4],Solubility (% by Mass) [5],Structure (SMILES)
8.8,1.2 mPa·s,–,–,–,–,CCCCC(CC)CN(CC(CC)CCCC)c1ccc(C=C2C(=O)ON=C2C(C)CC)c(C)c1 (stereo not shown) [D1-1]
8.5,1.3 mPa·s,508 nm,4.40 × 10^4,orange,8.5 % by mass,CCCCC(CC)CN(CC(CC)CCCC)c1ccc(C=C2C(=O)N(C(C)CC)N=C2C(C)CC)c(C)c1 (stereo not shown) [D2-1]
–,–,505 nm,4.60 × 10^4,–,9.8 % by mass,CCCCC(CC)CC1=NN(CC(CC)CCCC)C(=O)C1=Cc1ccc(N(CC)CC)cc1OCC(CC(C)CC(C)CC(C)C)CC(C)CC(C)(C)C (stereo not shown) [D2-2]
8.0,1.2 mPa·s,510 nm,4.30 × 10^4,orange,3.0 % by mass,CCCCCCN(CCCCCC)c1ccc(C=C2C(=O)N(CC(CC)CCCC)N=C2C)c(C)c1 (stereo not shown) [D2-5]
–,–,510 nm,4.25 × 10^4,orange,0.1 % by mass,"CCCCC1=NN(CCCC)C(=O)C1=Cc1ccc(N(CCCC)CCCC)cc1C [D2-101, reference compound]"
9.5,1.2 mPa·s,528 nm,–,–,6.2 % by mass,CCCCC(CC)CN(CC(CC)CCCC)c1ccc(C=C2C(=O)N(C(C)CC)C(=O)C(C#N)=C2C(C)CC)c(C)c1 (stereo not shown) [D3-1]
–,–,525 nm,–,–,≥ 10 or % by mass,CCCCC(CC)CN1C(=O)C(=Cc2ccc(N(CCCC)CCCC)cc2OCC(CC(C)CC(C)CC(C)C)CC(C)CC(C)(C)C)C(C)=C(C#N)C1=O (stereo not shown) [D3-2]
–,–,–,–,–,≦0.01 % by mass,"CCCCCCOc1cc(N(CCCC)CCCC)ccc1C=C1C(=O)N(CCCC)C(=O)C(C#N)=C1C [D3-101, reference compound]"
6.5,1.3 mPa·s,640 nm,–,blue,3.6 % by mass,CCCCC(CC)CNc1ccc(NCC(CC)CCCC)c2c1C(=O)c1ccccc1C2=O (stereo not shown) [D4-2]
–,–,642 nm,–,blue,0.1 % by mass,"CCCCCCNc1ccc(NCCCCCC)c2c1C(=O)c1ccccc1C2=O [D4-101, reference compound]"
7.5,1.2 mPa·s,505 nm,–,–,≥ 10 or % by mass,CCCCC(CC)COc1cc(N(CC(CC)CCCC)CC(CC)CCCC)ccc1N=C1C(=O)N(CC(CC)CCCC)N=C1C (stereo not shown) [D6-1]
–,–,500 nm,–,–,≥ 10 or % by mass,CCCCC(CC)CC1=NN(CC(CC)CCCC)C(=O)C1=Nc1ccc(N(CC)CC)cc1OCC(C)(CC(C)CC(C)C)CC(C)CC(C)(C)C (stereo not shown) [D6-2]
–,–,500 nm,–,orange,0.1 % by mass,"CCCCCCOc1cc(N(CC)CC)ccc1N=C1C(=O)N(CCCC)N=C1C [D6-101, reference compound]"
–,–,542 nm,–,red,≥ 10 or % by mass,CCCCCCCCN1c2cc(C)c(/N=C3/C(C)=Nn4nc(C(C)CNC(=O)C(CCCCCC)Oc5ccc(C(C)(C)CC)cc5C(C)(C)CC)nc43)cc2C(C)CC1(C)C (stereo not shown) [D8-2]
7.8,1.3 mPa·s,562 nm,–,red,≥ 10 or % by mass,CCCCCC(CC)c1nc2n(n1)N=C(C(C)CC)/C2=N/c1ccc(N(CC(CC)CCCC)CC(CC)CCCC)cc1C (stereo not shown) [D8-4]
7.7,1.3 mPa·s,–,–,–,–,CCCCC(CC)CNC(=O)c1cc(N(CC(CC)CCCC)CC(CC)CCCC)ccc1/N=C1/C(CC)=Nn2nc(C(C)C)nc21 (stereo not shown) [D8-9]
–,–,541 nm,–,red,0.8 % by mass,"CCCCCCCCN1c2cc(C)c(/N=C3/C(C)=Nn4nc(C(C)(C)C)nc43)cc2C(C)CC1(C)C (stereo not shown) [D8-101, reference compound]"
–,–,616 nm,–,blue,2.2 % by mass,CCCCCCCCN1c2cc(C)c(/N=C3\C(C#N)=C(C(=O)OC4C(C(C)(C)C)CC(C)CC4C(C)(C)C)c4nc(C(C)CCCC)nn43)cc2C(C)CC1(C)C (stereo not shown) [D9-2]
7.6,–,–,–,–,–,CCCCC(CC)CN(CC(CC)CCCC)c1ccc(/N=C2\C(C#N)=C(C(=O)OC3C(C(C)(C)C)CC(C)CC3C(C)(C)C)c3nc(C(CC)CCCC)nn32)c(C(C)CC)c1 (stereo not shown) [D9-3]
5.6,–,–,–,–,–,CCCCC(CC)CN(CC(CC)CCCC)c1ccc(/N=C2\C(C#N)=C(C(=O)OC3C(C(C)(C)C)CC(C)CC3C(C)(C)C)c3nc(C(C)(C)C)nn32)c(C(=O)N(CCCC)CCCC)c1 (stereo not shown) [D9-4]
6.5,1.2 mPa·s,600 nm,–,blue,≥ 10 or % by mass,CCCCC(CC)CN(CC(CC)CCCC)c1ccc(/N=C2\C(C#N)=C(C(=O)OC3C(C(C)(C)C)CC(C)CC3C(C)(C)C)c3nc(C(C)(C)C)nn32)cc1 (stereo not shown) [D9-5]
6.2,1.2 mPa·s,650 nm,–,blue,≥ 10 or % by mass,CCCCC(CC)CNC(=O)c1cc(N(CC(CC)CCCC)CC(CC)CCCC)ccc1/N=C1\C(C#N)=C(C(=O)OC2C(C(C)(C)C)CC(C)CC2C(C)(C)C)c2nc(C(C)(C)C)nn21 (stereo not shown) [D9-6]
–,–,–,–,–,≤ 0.05 or % by mass,"CCN(CC)c1ccc(/N=C2\C(C#N)=C(C(=O)OC)c3nc(-c4ccc(C(C)(C)C)cc4)nn32)c(C)c1 [D9-101, reference compound]"
4.2,1.3 mPa·s,–,–,–,–,CCCCC(CC)CNC(=O)C1=CC(=Nc2ccc(N(CC(CC)CCCC)CC(CC)CCCC)cc2C)c2ccccc2C1=O (stereo not shown) [D10-1]
